Laboratory results taken from publication PMC10381170, “1,3,4-Oxadiazole and 1,3,4-Thiadiazole Nortopsentin Derivatives against Pancreatic Ductal Adenocarcinoma: Synthesis, Cytotoxic Activity, and Inhibition of CDK1” (Marine Drugs, 2023).

Columns and labels:
[1] = tested on: BxPC-3 cells; assay: SRB antiproliferative assay, BxPC-3; format: cell-based, human
Description: (§1) The cytotoxic activity of the nortopsentin derivatives 3b, 3e, 4c, 5b, and 6c on pancreatic cancer cells (BxPC-3, Panc-1, Suit-2, Capan-1, PaTu-T, primary PDAC-3 and resistant Panc-1-GR cells) was determined by the sulforhodamine B (SRB) chemosensitivity assay, as described previously. Cells were plated in 96-well flat-bottom plates at final concentrations ranging from 3000–5000 cells/well in 100 µL of medium. After a 24 h pre-incubation period, cells were treated with the compounds at nine screening concentrations (from 0.1 μM to 40 μM) in triplicate and incubated at 37 °C for 72 h. After the treatment, cells were fixed with 25 µL of cold 50% trichloroacetic acid (TCA) for each well and incubated at 4 °C for 1 h. Afterwards, plates were washed five times with demi-water and air-dried overnight. Then, the plates were stained with 50 µL of 0.4% SRB solution in 1% acetic acid for 15 min. The excess stain was rinsed off by placing the plates under running 1% acetic acid and allowed to dry at room temperature overnight. SRB staining was rinsed with 150 µL tris(hydroxymethyl)aminomethane solution pH = 8.8 (TRIS-base), and the optical density (OD) was read at 492 nm. Each assay was performed in triplicate and assays were repeated at least three times. The comparison of the average optical density of the growth in control wells with that in the sample wells allowed the estimation of the percentage of cell growth, using the following equation: % Cell Growth = (mean ODcompound − mean ODday zero plate)/(mean ODcells − mean ODday zero plate) × 100
(§2) The results obtained were adjusted by the day zero plate (wells containing cells growing for only 24 h) and normalized by the control cells (wells with untreated cells) to obtain the rate of viable cells.

[2] = tested on: Panc-1 cells; assay: SRB antiproliferative assay, Panc-1; format: cell-based, human
Description: as §1, §2

[3] = tested on: Panc-1-GR cells; assay: SRB antiproliferative assay, gemcitabine-resistant Panc-1-GR; format: cell-based, human
Description: as §1, §2

[4] = tested on: Suit-2 cells; assay: SRB antiproliferative assay, Suit-2; format: cell-based, human
Description: as §1, §2

[5] = tested on: Capan-1 cells; assay: SRB antiproliferative assay, Capan-1; format: cell-based, human
Description: as §1, §2

[6] = tested on: PaTu-T cells; assay: SRB antiproliferative assay, PaTu-T; format: cell-based, human
Description: as §1, §2

[7] = tested on: PDAC-3 cells; assay: SRB antiproliferative assay, primary culture PDAC-3; format: cell-based, human
Description: as §1, §2

[8] = tested on: PDAC cells; assay: SRB antiproliferative assay, whole PDAC panel; format: cell-based; conditions: Homo sapiens; seven PDAC models, 72 h; read-out: IC50 values, range over the PDAC cell panel
Description: as §1, with “The comparison of the average optical density of the growth in control wells with that in the sample wells allowed the estimation of the percentage of cell growth, using the following equation: % Cell Growth = (mean ODcompound − mean ODday zero plate)/(mean ODcells − mean ODday zero plate) × 100” left out

[9] = tested on: normal human skin fibroblasts Hs27; assay: SRB cytotoxicity on normal fibroblasts; format: cell-based
Description: The compound was tested at eight different concentrations ranging from 0.31 μM to 40 μM using the SRB assay. […] At the highest concentration tested (40 μM), only 18% growth inhibition was observed after 72 h of exposure. […] These findings provide evidence of the potential safety of compound 3b for further development as a therapeutic agent.
as §1

[10] = tested on: PDAC-3 cells; assay: Cell-cycle analysis by PI flow cytometry, PDAC-3; format: cell-based, human
Description: (§3) Cell cycle perturbation was analyzed by flow cytometry. Optimized numbers of cells (5 × 10^5 cells/mL) were seeded in 6-well plates. […] After treatment, the cells were harvested by trypsinization (250 µL trypsin-EDTA/well), incubated until the cells detached, re-suspended using the same medium used for culture, collected in specific FACS (Fluorescence Activated Cell Sorting) tubes, and washed with 1.5 mL phosphate-buffered saline (PBS). The samples were then centrifuged to form a pellet (5 min at 1500 rpm). These pellets were fixed in 1 mL of ice-cold 70% ethanol, added drop by drop during vortex, and placed in the refrigerator at 4 °C. After overnight incubation, the cells were washed twice with PBS, centrifuged (5 min at 1500 rpm), re-suspended in […] of RNase ([…]) and incubated for 30 min at 37 °C. Finally, […] of propidium iodide solution (PI, […]) was added, and the cell distribution in the various phases of the cell cycle was analyzed in a FACS Calibur instrument. Data analysis was carried out with FACSdiva software (Becton Dickinson), while cell cycle distribution was determined using Modfit software (Verity-Software, Topsham, ME, USA).

[11] = tested on: Suit-2 cells; assay: Cell-cycle analysis by PI flow cytometry, Suit-2; format: cell-based, human
Description: as §3

[12] = tested on: CDK1; assay: CDK1 ELISA in PDAC-3; format: cell-based, human; conditions: PDAC-3, 10 µM, 24 h, vs DMSO control, p < 0.01
Description: The expression of CDK1 was detected and quantified using an Enzyme-Linked Immunosorbent Assay (ELISA, Human cyclin-dependent kinase 1 (CDK1) ELISA Kit, Catalog Number: MBS707090) according to the manufacturer’s protocol and our previous studies. Volumes of 100 µL of the standard and the sample were added for each well, and the plates were incubated for 2 h at 37 °C. Then, the liquid was removed, and 100 µL of biotin-antibody was added to each well; the plates were then incubated for 1 h at 37 °C. The medium was removed, and the plates were washed with wash buffer (200 µL). Subsequently, 100 µL of HRP-avidin was added to each well, and the plates were incubated for 1 h at 37 °C. The washing process was repeated five times. At the end, 90 µL of TMB substrate was added to each well, and the plates were incubated for 30 min at 37 °C in the dark. Finally, 50 µL of stop solution was added to each well. The optical density of each well was determined using a microplate reader set to 450 nm.

[13] = Homo sapiens, 72 h, mean ± SEM, read-out: Half-maximal inhibitory concentration (IC50)
[14] = Suit-2, 2 μM, 24 h (control 23%)
[15] = Suit-2, 4-fold IC50, 24 h (control 23%)

Q: What does the source list for `Cn1cc(-c2nnc(-c3cn(C)c4ncccc34)o2)c2ccccc21` [3b, 1-methyl-3-[5-(1-methyl-1H-indol-3-yl)-1,3,4-oxadiazol-2-yl]-7-azaindole]?
A: Cell growth percentage ([1]; BxPC-3, 10 μM, 72 h exposure): 11.10%; IC50 ([1]; Homo sapiens, BxPC-3, 72 h, mean ± SEM, read-out: Half-maximal inhibitory concentration (IC50)): 2.1 ± 0.006 µM; IC50 ([2]; Homo sapiens, Panc-1, 72 h, mean ± SEM, read-out: Half-maximal inhibitory concentration (IC50)): 2.5 ± 0.55 µM; Cell growth percentage ([2]; Panc-1, 10 μM, 72 h exposure): 9.12%; Cell growth percentage ([3]; 10 μM, 72 h exposure): 22.47%; IC50 [3, 13]: 8 ± 2.8 µM; IC50 ([4]; Homo sapiens, Suit-2, 72 h, mean ± SEM, read-out: Half-maximal inhibitory concentration (IC50)): 1.4 ± 0.74 µM; Cell growth percentage ([4]; Suit-2, 10 μM, 72 h exposure): 18.34%; Cell growth percentage ([5]; Capan-1, 10 μM, 72 h exposure): 18.33%; IC50 ([5]; Homo sapiens, Capan-1, 72 h, mean ± SEM, read-out: Half-maximal inhibitory concentration (IC50)): 2.6 ± 0.62 µM; Cell growth percentage ([6]; 10 μM, 72 h exposure): 17.13%; IC50 [6, 13]: 3.2 ± 0.42 µM; IC50 ([7]; Homo sapiens, PDAC-3, 72 h, mean ± SEM, read-out: Half-maximal inhibitory concentration (IC50)): 8.1 ± 0.14 µM; Cell growth percentage ([7]; PDAC-3, 10 μM, 72 h exposure): 38.35%; IC50 [8]: 1.4 to 8.1 µM; growth inhibition ([9]; Hs27, 40 μM (highest concentration), 72 h): 18%; cytotoxicity towards normal fibroblast cells ([9]; Hs27, 0.31-40 μM): relatively non-toxic; cell growth rate ([9]; Hs27, concentrations below 10 μM, 72 h): ~100%; percentage of cells in G2-M phase ([10]; PDAC-3, 2 μM, 24 h (control 16%)): 23%; percentage of cells in S phase ([10]; PDAC-3, 2 μM, 24 h (control 25%)): 23%; percentage of cells in G0-G1 phase ([10]; PDAC-3, 2 μM, 24 h (control 59%)): 54%; percentage of cells in G2-M phase ([10]; PDAC-3, 4-fold IC50, 24 h (control 16%)): 52%; percentage of cells in S phase ([10]; PDAC-3, 4-fold IC50, 24 h (control 25%)): 19%; percentage of cells in G0-G1 phase ([10]; PDAC-3, 4-fold IC50, 24 h (control 59%)): 29%; percentage of cells in G2-M phase [11, 14]: 75%; percentage of cells in S phase [11, 14]: 15%; percentage of cells in G0-G1 phase ([11]; Suit-2, 2 μM, 24 h (control 54%)): 10%; percentage of cells in G2-M phase [11, 15]: 76%; percentage of cells in S phase [11, 15]: 14%; percentage of cells in G0-G1 phase ([11]; Suit-2, 4-fold IC50, 24 h (control 54%)): 10%; CDK1 expression by ELISA [12]: reduction in CDK1 expression
